US20240166635A1, “AMINOHETEROARYL KINASE INHIBITORS” (Anrui Biomedical Technology (Guangzhou) Co.,Ltd., priority 2020, published 2024)

What was measured:
Type in all cases: biochemical
[1] = target: CDK2/CyclinE1 (Homo sapiens (Human), UniProt P24941); experiment: CDK2/CyclinE1 kinase inhibitory activity (Caliper mobility shift); details: read-out: CDK2/Cyclin El IC50
[2] = target: CDK1/CyclinB (Homo sapiens (Human), UniProt P06493); experiment: CDK1/CyclinB kinase inhibitory activity (Caliper mobility shift); details: read-out: CDK1/Cyclin B1 IC50
[3] = target: CDK4/Cyclin D1 (Homo sapiens (Human), UniProt P11802); experiment: CDK4/CyclinD1 kinase inhibitory activity (Caliper mobility shift)
[4] = target: CDK6/CyclinD1 (Homo sapiens (Human), UniProt Q00534); experiment: CDK6/CyclinD1 kinase inhibitory activity (Caliper mobility shift); details: read-out: CDK6/Cyclin D1 IC50
[5] = target: CDK7/CyclinH/MAT1 (Homo sapiens (Human), UniProt P50613); experiment: CDK7/CyclinH/MAT1 kinase inhibitory activity (Caliper mobility shift)
[6] = target: CDK9/CyclinT1 (Homo sapiens (Human), UniProt P50750); experiment: CDK9/CyclinT1 kinase inhibitory activity (Caliper mobility shift); details: read-out: CDK9/Cyclin T1 IC50
Sequence of CDK9/CyclinT1 (P50750 whole entry): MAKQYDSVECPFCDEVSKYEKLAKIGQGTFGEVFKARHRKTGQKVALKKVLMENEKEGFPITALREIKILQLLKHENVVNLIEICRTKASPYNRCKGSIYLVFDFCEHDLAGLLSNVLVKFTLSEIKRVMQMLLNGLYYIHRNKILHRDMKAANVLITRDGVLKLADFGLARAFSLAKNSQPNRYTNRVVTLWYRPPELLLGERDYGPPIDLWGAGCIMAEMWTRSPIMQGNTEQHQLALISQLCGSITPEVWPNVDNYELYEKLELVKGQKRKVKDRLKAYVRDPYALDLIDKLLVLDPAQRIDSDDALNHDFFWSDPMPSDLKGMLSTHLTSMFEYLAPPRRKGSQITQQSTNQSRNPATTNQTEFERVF
Sequence of CDK9/CyclinT1 (O60563 whole entry partner): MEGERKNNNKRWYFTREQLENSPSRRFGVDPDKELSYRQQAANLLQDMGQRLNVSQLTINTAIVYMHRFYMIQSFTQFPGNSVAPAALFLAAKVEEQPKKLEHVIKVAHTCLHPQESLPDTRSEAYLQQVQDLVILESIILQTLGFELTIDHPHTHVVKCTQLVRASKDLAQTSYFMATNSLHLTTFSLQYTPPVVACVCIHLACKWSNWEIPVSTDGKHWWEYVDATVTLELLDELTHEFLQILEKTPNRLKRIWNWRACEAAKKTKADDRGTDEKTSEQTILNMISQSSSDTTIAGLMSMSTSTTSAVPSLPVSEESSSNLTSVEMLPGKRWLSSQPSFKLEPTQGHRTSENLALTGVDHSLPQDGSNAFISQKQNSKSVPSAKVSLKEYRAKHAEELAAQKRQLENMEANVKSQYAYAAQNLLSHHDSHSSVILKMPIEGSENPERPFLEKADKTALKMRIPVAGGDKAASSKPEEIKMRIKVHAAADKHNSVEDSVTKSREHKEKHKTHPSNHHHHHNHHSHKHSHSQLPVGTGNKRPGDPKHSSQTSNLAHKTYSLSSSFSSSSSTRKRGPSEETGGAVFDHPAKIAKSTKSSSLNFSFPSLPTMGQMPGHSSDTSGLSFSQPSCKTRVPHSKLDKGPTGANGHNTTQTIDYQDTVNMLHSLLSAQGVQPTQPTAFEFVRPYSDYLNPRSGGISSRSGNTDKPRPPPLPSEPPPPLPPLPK

Sequence of CDK6/CyclinD1 (Q00534 whole entry): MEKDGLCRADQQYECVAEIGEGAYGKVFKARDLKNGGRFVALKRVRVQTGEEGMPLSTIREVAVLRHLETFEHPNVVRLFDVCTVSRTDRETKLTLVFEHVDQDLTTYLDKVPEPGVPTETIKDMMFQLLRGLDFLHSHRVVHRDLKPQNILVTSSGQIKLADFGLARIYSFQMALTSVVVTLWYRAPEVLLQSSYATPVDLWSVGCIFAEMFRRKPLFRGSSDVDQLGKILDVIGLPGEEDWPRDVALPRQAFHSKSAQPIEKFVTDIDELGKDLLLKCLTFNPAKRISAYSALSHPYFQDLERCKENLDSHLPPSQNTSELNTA
Sequence of CDK6/CyclinD1 (P24385 whole entry partner): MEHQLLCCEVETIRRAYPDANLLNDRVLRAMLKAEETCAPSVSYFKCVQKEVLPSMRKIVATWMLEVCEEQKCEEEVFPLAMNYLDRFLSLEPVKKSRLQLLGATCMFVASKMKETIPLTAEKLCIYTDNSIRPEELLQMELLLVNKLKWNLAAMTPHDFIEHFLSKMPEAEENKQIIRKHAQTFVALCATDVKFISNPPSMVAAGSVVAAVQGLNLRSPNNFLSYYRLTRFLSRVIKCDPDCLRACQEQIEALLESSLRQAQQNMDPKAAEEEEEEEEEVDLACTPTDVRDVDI
Sequence of CDK1/CyclinB (P06493 whole entry): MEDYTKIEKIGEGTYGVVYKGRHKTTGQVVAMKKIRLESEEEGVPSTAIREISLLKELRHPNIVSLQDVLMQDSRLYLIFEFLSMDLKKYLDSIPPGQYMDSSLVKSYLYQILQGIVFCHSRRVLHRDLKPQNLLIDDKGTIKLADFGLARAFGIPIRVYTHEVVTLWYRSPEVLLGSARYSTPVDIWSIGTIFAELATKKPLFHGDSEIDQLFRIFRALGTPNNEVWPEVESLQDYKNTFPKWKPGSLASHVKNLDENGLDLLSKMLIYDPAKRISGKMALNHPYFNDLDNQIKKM
Sequence of CDK1/CyclinB (P14635 whole entry partner): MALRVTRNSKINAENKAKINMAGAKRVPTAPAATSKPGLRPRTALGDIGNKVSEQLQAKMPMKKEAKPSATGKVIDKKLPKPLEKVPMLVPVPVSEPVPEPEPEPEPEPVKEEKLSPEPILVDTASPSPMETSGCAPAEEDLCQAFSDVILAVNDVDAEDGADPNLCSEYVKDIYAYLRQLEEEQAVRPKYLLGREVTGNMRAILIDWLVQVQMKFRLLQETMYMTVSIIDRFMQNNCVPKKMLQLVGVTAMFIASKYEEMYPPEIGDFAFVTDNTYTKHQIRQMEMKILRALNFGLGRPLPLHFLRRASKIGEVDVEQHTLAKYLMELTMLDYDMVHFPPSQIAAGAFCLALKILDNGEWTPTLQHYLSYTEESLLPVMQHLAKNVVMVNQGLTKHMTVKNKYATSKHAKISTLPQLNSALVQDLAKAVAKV
Sequence of CDK4/Cyclin D1 (P11802 whole entry): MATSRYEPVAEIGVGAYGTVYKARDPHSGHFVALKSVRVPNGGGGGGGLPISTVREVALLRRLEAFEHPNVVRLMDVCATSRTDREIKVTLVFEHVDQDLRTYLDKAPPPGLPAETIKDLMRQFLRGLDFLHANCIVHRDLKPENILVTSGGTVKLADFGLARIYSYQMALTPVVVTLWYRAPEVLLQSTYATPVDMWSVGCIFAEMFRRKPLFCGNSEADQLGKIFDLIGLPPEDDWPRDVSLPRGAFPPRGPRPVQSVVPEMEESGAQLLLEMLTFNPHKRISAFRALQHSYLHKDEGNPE
Sequence of CDK4/Cyclin D1 (P24385 whole entry partner): as the sequence (P24385 whole entry partner) above
Sequence of CDK7/CyclinH/MAT1 (P50613 whole entry): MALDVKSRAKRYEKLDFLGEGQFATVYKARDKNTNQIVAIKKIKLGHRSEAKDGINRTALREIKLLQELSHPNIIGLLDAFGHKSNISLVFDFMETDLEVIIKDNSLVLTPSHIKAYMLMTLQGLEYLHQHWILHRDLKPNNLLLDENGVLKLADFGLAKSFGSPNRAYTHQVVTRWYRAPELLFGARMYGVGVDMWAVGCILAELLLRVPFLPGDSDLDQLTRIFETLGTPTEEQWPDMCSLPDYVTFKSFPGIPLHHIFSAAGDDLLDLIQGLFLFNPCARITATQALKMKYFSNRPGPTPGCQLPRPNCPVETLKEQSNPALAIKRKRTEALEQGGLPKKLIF
Sequence of CDK7/CyclinH/MAT1 (P51946 whole entry partner): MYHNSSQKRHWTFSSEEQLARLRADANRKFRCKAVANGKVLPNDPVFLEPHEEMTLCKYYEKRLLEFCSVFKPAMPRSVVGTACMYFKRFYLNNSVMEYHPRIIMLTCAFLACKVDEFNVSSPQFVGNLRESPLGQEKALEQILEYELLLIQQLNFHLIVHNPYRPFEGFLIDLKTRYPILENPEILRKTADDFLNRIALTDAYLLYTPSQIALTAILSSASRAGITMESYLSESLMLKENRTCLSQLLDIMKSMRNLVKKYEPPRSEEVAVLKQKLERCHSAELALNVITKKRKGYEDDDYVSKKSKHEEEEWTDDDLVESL
Sequence of CDK7/CyclinH/MAT1 (P51948 whole entry partner): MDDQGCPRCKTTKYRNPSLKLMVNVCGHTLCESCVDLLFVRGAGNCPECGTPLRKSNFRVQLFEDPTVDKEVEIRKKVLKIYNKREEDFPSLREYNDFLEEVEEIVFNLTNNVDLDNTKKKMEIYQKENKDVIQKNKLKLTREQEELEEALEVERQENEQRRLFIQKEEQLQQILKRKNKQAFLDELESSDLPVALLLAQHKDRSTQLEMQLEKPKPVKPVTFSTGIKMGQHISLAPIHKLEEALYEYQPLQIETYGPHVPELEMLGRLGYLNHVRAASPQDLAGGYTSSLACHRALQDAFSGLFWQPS

| IC50 [1] [nM] | IC50 [2] [nM] | IC50 [3] [nM] | IC50 [4] [nM] | IC50 [5] [nM] | IC50 [6] [nM] | Structure (SMILES) |
| --- | --- | --- | --- | --- | --- | --- |
| < 10 | 10 to 100 | 100 to 1000 | 100 to 1000 | 100 to 1000 | 100 to 1000 | [2H]C([2H])([2H])NS(=O)(=O)c1ccc(Nc2ncc(C(F)(F)F)c(O[C@H]3CCCOC[C@H]3O)n2)cc1 (single isomer, unassigned) [Example 103a, cis-4-((4-((3-hydroxyoxepan-4-yl)oxy)-5-(trifluoromethyl)pyrimidin-2-yl)amino)-N-(methyl-d3)benzenesulfonamide] |
| < 10 | 10 to 100 | 100 to 1000 | 100 to 1000 | 100 to 1000 | 100 to 1000 | CC1(NS(=O)(=O)c2ccc(Nc3ncc(Br)c(O[C@@H]4CCC[C@@H]4O)n3)cc2)COC1 (single isomer, unassigned) [Example 131a, cis-4-((5-bromo-4-((2-hydroxycyclopentyl)oxy)pyrimidin-2-yl)amino)-N-(3-methyloxetan-3-yl)benzenesulfonamide] |
| < 10 | < 10 | < 10 | 10 to 100 | 100 to 1000 | 100 to 1000 | Cn1cc(S(=O)(=O)N2CCC(Nc3ncc(C#N)c(OCC4(C)CCC4)n3)CC2)cn1 [Example 60] |
| < 10 | 10 to 100 | 100 to 1000 | 100 to 1000 | 100 to 1000 | 100 to 1000 | CNS(=O)(=O)c1ccc(Nc2ncc(C(F)(F)F)c(OC3CCOCC3O)n2)cc1 (single isomer, unassigned) [Example 116a] |
| < 10 | 10 to 100 | 10 to 100 | < 10 | 100 to 1000 | 100 to 1000 | CC(C)CS(=O)(=O)N1CCC(Nc2ncc(C#N)c(OC3CCCC3(C)O)n2)CC1 (single isomer, unassigned) [Example 39a] |
| < 10 | 100 to 1000 | ≥ 1000 | ≥ 1000 | ≥ 1000 | ≥ 1000 | [2H]C([2H])([2H])NS(=O)(=O)c1ccc(Nc2ncc(C(F)(F)F)c(O[C@H]3CCOC[C@H]3O)n2)c(F)c1 (single isomer, unassigned) [Example 101a, cis-3-fluoro-4-((4-((3-hydroxytetrahydro-2H-pyran-4-yl)oxy)-5-(trifluoromethyl)pyrimidin-2-yl)amino)-N-(methyl-d3)benzenesulfonamide] |
| < 10 | 10 to 100 | 10 to 100 | 10 to 100 | 10 to 100 | 100 to 1000 | CS(=O)(=O)N1CCC(Nc2ncc(Br)c(OC3CCCCCC3O)n2)CC1 (single isomer, unassigned) [Example 145b] |
| < 10 | 10 to 100 | < 10 | 10 to 100 | 100 to 1000 | 100 to 1000 | CC1(COc2nc(NC3CCN(S(C)(=O)=O)CC3)ncc2C#N)CCC1 [Example 53] |
| < 10 | 10 to 100 | 10 to 100 | 10 to 100 | 100 to 1000 | 10 to 100 | N#Cc1cnc(Nc2ccc(S(N)(=O)=O)cc2)nc1OC1CCCC1 [Example 10] |
| < 10 | 10 to 100 | 10 to 100 | 10 to 100 | ≥ 1000 | 100 to 1000 | N#Cc1cnc(Nc2ccc(S(N)(=O)=O)cc2)nc1OC1CCCCCC1O (single isomer, unassigned) [Example 22a] |
| < 10 | 10 to 100 | 10 to 100 | 10 to 100 | < 10 | 10 to 100 | CC1(O)COCCC1Oc1nc(NC2CCN(S(C)(=O)=O)CC2)ncc1C(F)(F)F (single isomer, unassigned) [Example 124a] |
| < 10 | 10 to 100 | 10 to 100 | 10 to 100 | 10 to 100 | 100 to 1000 | CS(=O)(=O)N1CCC(Nc2ncc(C(F)(F)F)c(OC3CCCCC3O)n2)CC1 (single isomer, unassigned) [Example 120a] |
| < 10 | < 10 | < 10 | < 10 | < 10 | 10 to 100 | CC1(O)CCC(F)(F)CC1Oc1nc(NC2CCN(S(C)(=O)=O)CC2)ncc1C#N (single isomer, unassigned) [Example 46b] |
| < 10 | 10 to 100 | 100 to 1000 | 100 to 1000 | ≥ 1000 | 100 to 1000 | CC1CCCC(O)C1Oc1nc(Nc2ccc(S(N)(=O)=O)cc2)ncc1C(F)(F)F (single isomer, unassigned) [Example 112a] |
| < 10 | 10 to 100 | 10 to 100 | 10 to 100 | ≥ 1000 | 100 to 1000 | N#Cc1cnc(Nc2ccc(S(N)(=O)=O)cc2)nc1O[C@@H]1CCCC[C@@H]1O (single isomer, unassigned) [Example 2a, cis-4-((5-cyano-4-((2-hydroxycyclohexyl)oxy)pyrimidin-2-yl)amino)benzenesulfonamide] |
| < 10 | 100 to 1000 | ≥ 1000 | 100 to 1000 | 100 to 1000 | ≥ 1000 | [2H]C([2H])([2H])NS(=O)(=O)c1ccc(Nc2ncc(CC)c(OC3CCOCC3O)n2)cc1 (single isomer, unassigned) [Example 151a] |
| < 10 | 10 to 100 | 100 to 1000 | 10 to 100 | 100 to 1000 | 100 to 1000 | [2H]C([2H])([2H])NS(=O)(=O)c1ccc(Nc2ncc(Br)c(OC3CCCC3O)n2)cc1 (single isomer, unassigned) [Example 143a] |
| < 10 | 10 to 100 | 100 to 1000 | 100 to 1000 | 100 to 1000 | 100 to 1000 | [2H]C([2H])([2H])NS(=O)(=O)c1ccc(Nc2ncc(C(F)(F)F)c(OC3COCCC3O)n2)cc1 (single isomer, unassigned) [Example 117a] |
| < 10 | 10 to 100 | < 10 | 10 to 100 | 100 to 1000 | 100 to 1000 | CC1(O)CCCC1Oc1nc(NC2CCN(S(=O)(=O)CC(F)(F)F)CC2)ncc1C#N (single isomer, unassigned) [Example 43a] |
| < 10 | 10 to 100 | 10 to 100 | 10 to 100 | 100 to 1000 | 10 to 100 | NS(=O)(=O)c1ccc(Nc2ncc(Br)c(OC3CCCC3O)n2)cc1 (single isomer, unassigned) [Example 141a] |
| < 10 | 100 to 1000 | 100 to 1000 | 100 to 1000 | ≥ 1000 | 100 to 1000 | N#Cc1cnc(Nc2ccc(S(N)(=O)=O)cc2)nc1OC1CCCC1O (single isomer, unassigned) [Example 20a] |
| < 10 | 10 to 100 | < 10 | < 10 | 10 to 100 | 100 to 1000 | CC1(O)CC(F)(F)CCC1Oc1nc(NC2CCN(S(C)(=O)=O)CC2)ncc1C#N (single isomer, unassigned) [Example 47a] |
| < 10 | 10 to 100 | 10 to 100 | < 10 | 10 to 100 | 100 to 1000 | CC1(O)CC(F)(F)CC1Oc1nc(NC2CCN(S(=O)(=O)CC3CC3)CC2)ncc1C#N (single isomer, unassigned) [Example 44b] |
| < 10 | 10 to 100 | < 10 | < 10 | 10 to 100 | 100 to 1000 | CC1(O)CCCC1Oc1nc(NC2CCN(S(=O)(=O)CC3CC3)CC2)ncc1C#N (single isomer, unassigned) [Example 38a] |
| < 10 | 10 to 100 | 10 to 100 | < 10 | 10 to 100 | 100 to 1000 | C[C@]1(O)CC(F)(F)C[C@H]1Oc1nc(NC2CCN(S(C)(=O)=O)CC2)ncc1C#N (relative stereo) [Example 4a, cis-4-((4,4-difluoro-2-hydroxy-2-methylcyclopentyl)oxy)-2-((1-(methylsulfonyl)piperidin-4-yl)amino)pyrimidine-5-carbonitrile] |
| < 10 | 10 to 100 | 10 to 100 | 100 to 1000 | ≥ 1000 | 100 to 1000 | CNS(=O)(=O)c1ccc(Nc2ncc(C#N)c(N3CCCCC3)n2)cc1 [Example 91] |
| < 10 | 10 to 100 | 100 to 1000 | 100 to 1000 | 100 to 1000 | 100 to 1000 | [2H]C([2H])([2H])NS(=O)(=O)c1ccc(Nc2ncc(C(=C)F)c(O[C@@H]3CCC[C@@H]3O)n2)cc1 (single isomer, unassigned) [Example 135a, cis-4-((5-(1-fluorovinyl)-4-((2-hydroxycyclopentyl)oxy)pyrimidin-2-yl)amino)-N-(methyl-d3)benzenesulfonamide] |
| < 10 | < 10 | 10 to 100 | 10 to 100 | 10 to 100 | 10 to 100 | CC1(O)CCCC1Oc1nc(Nc2ccc(S(N)(=O)=O)cc2)ncc1C1CC1 (single isomer, unassigned) [Example 154a] |
| < 10 | 10 to 100 | 10 to 100 | 10 to 100 | 100 to 1000 | 100 to 1000 | CS(=O)(=O)N1CCC(Nc2ncc(C(F)(F)F)c(OC3CCC3)n2)CC1 [Example 126] |
| < 10 | 10 to 100 | 100 to 1000 | 100 to 1000 | 100 to 1000 | 100 to 1000 | CC(C)NS(=O)(=O)c1ccc(Nc2ncc(Cl)c(OC3CCCC3O)n2)cc1 (single isomer, unassigned) [Example 138a] |
